A short description of this assay: Inhibition of [14C]arachidonic acid conversion to 5-HETE by broken cell 5-lipoxygenase in vitro (guinea pig PMN).
One may read the IC50 as the concentration that gives 50% inhibition. In turn, `COc1ccc2c(c1C(=O)NO)Nc1ccccc1O2` [2-Methoxy-10H-phenoxazine-1-carboxylic acid hydroxyamide] registered an IC50 of 0.42 µM.

On to `COC(=O)c1cccc2c1Nc1ccccc1O2` [10H-Phenoxazine-1-carboxylic acid methyl ester], for which it took 0.77 µM to reach half-maximal inhibition (IC50).

`O=C(O)c1cccc2c1Nc1ccccc1O2` [10H-Phenoxazine-1-carboxylic acid] had an IC50 of 0.61 µM.

As to `CN(O)C(=O)c1ccc2c(c1)Nc1ccccc1O2` [10H-Phenoxazine-2-carboxylic acid hydroxy-methyl-amide], the IC50 turned out to be 0.087 µM.

In turn, `COC(=O)c1ccc2c(c1)Nc1ccccc1O2` [10H-Phenoxazine-2-carboxylic acid methyl ester] registered an IC50 of 0.065 µM.

The compound `O=C(O)c1ccc2c(c1)Nc1ccccc1O2` [10H-Phenoxazine-2-carboxylic acid] came in with an IC50 of 4.6 µM. This IC50 is about 71-fold higher than that of the compound before.

`c1ccc2c(c1)Nc1ccccc1O2` [10H-Phenoxazine] yielded a 50% inhibitory concentration (IC50) of 0.02 µM.

On to `CCOC(=O)/C=C/c1ccc2c(c1)Nc1ccccc1O2` [(E)-3-(10H-Phenoxazin-2-yl)-acrylic acid ethyl ester], for which the IC50 was found to be 0.035 µM. This IC50 is about 1.8-fold higher than that of the compound before.

In turn, `O=C(O)/C=C/c1ccc2c(c1)Nc1ccccc1O2` [(E)-3-(10H-Phenoxazin-2-yl)-acrylic acid] returned an IC50 of 1.2 µM.

As to `CN(O)C(=O)/C=C/c1ccc2c(c1)Nc1ccccc1O2` [(E)-N-Hydroxy-N-methyl-3-(10H-phenoxazin-2-yl)-acrylamide], half-maximal inhibition (IC50) required 0.085 µM. Compared with the last compound, the IC50 is about 14-fold lower.
